Measurements from patent publication US10149907B2, “Combinations of a photosensitizer with a hydrogen sulfide donor, thioredoxin inhibitor or nitroxide for use in photodynamic therapy” (UNIVERSITY OF EXETER, priority 2014, dated 2018).
Several values for one entry are separate records, joined by “and”; a condition that tells them apart may be missing. Identical values can stand only once. Like-named read-outs stand apart in the source and are kept apart here.

How the values were obtained:
A431 cells [1] = assay: Photodynamic cell killing in the presence of inhibitors of the thioredoxin antioxidant system or nitroxides (annexin V-FITC/propidium iodide flow cytometry); assay type: cell-based, human
Description: After this treatment, the cells were irradiated for 5 min (630 nm, 25 J/cm^2), then washed with PBS and the culture medium was replaced, after which the cells were placed back under 2% O2 and incubated for a further 3 h. Following this final incubation, cell death was analysed by annexin V-FITC and propidium iodide staining in conjunction with flow cytometry.
(§1) Cell death analysis by flow cytometry was carried out using the annexin V-FITC/propidium iodide protocol. This protocol allows a quantitative assessment of cell death, particularly specific modes of death, and involves staining the cells with fluorescein isothiocyanate-conjugated annexin A5 (annexin V-FITC) and propidium iodide (PI). Positive staining with annexin V-FITC alone indicates an apoptotic cell; positive staining with PI alone indicates a necrotic cell and dual staining of both annexin V and PI indicates a “late apoptotic” cell.
(§2) From each flask being assessed, the old medium was removed and placed into a corresponding individual 15 ml Falcon tube in order to collect any cells that may have detached from the surface. The flask was washed once with 1 ml PBS; also deposited in the Falcon tubes. Trypsin (500 μl) was added to each flask and the flasks were returned to the incubator with their caps loosened. Cell detachment was monitored using an inverted light microscope, until 50% of the cells were detached. The flasks were then lightly tapped to detach the remainder of the cells. Medium (2 ml) was added to each flask in order to neutralise the trypsin present before being removed and dispensed into the Falcon tubes. One more wash with PBS was carried out in order to ensure any cells left in the flasks were collected. The Falcon tubes were then centrifuged at 490 g for 3 min, forming a pellet at the bottom of the tube. The supernatant was discarded, and the cells were re-suspended in 5 ml of PBS, in order to wash them, before being centrifuged again at 490 g for 3 min. The wash stage was carried out once more before re-suspending the cell pellet in 95 μl of ice cold calcium (Ca^2+) buffer (50 mM HEPES, 700 mM NaCl, 12.5 mM CaCl2, pH 7.4) and adding 5 μl 12.5 μg/ml of annexin V-FITC (final concentration, 1.25 μg/ml), under reduced light conditions to prevent bleaching of the FITC. The Falcon tubes were placed on ice and in the dark for 15 min to allow annexin V staining. After 15 min, 860 μl of Ca^2+ buffer (10 mM Hepes adjusted to pH 7.4, 140 mM NaCl and 2.5 mM CaCl2) was added, followed by 40 μl of 1 mg/ml PI in water (final concentration, 0.04 mg/ml) to give a final volume of 1 ml. The samples were then ready to be assessed by flow cytometry.
(§3) The following flow cytometry process of sample detection was used. When using annexin V-FITC and PI, the detectors being used were FL1 (λmax=520 nm) and FL3 (λmax=670 nm), respectively, each with their own logarithmic histogram generated by the software. The intensity of the fluorescence detected is measured on a logarithmic scale on the x-axis and the y-axis represents the number of cells detected at a given fluorescence intensity. A plot of FL1/FL3 produces a 4-quadrant graph, where unstained and untreated cells are located in the bottom left quadrant, representing any cells found in the 1st decade of the single plot logarithmic histograms. Single staining with annexin V-FITC and PI are located in the bottom right and top left quadrant, respectively, and dual staining is located in the top right quadrant. These quadrants represent any cells detected above the 1st decade of the logarithmic histograms.

A431 cells [2] = assay: Mitochondrial reactive oxygen species generation during photodynamic irradiation, MitoSOX flow cytometry; assay type: cell-based, human
Description: A431 cells were treated concurrently with AP39-C10 (10, 100 or 1000 nM) for 5 hours, MAL (1 mM) for 3 hours and MitoSOX (2.5 μM) for 1 hour, after which they were irradiated for 5 min (630 nm, 25 J/cm^2) and MitoSOX (mito-2-OH-E^+) fluorescence, indicative of mitochondrial oxidant production, was immediately analysed by flow cytometry. Results are set out in FIG. 23.
Mitochondria-targeted dihydroethidium (i.e. MitoSOX) was used to assess the production of mitochondrial reactive oxygen species (ROS) by PpIX photochemical reactions and to determine the effects of AP39-C10 on this process. All of the results are represented as a percentage of the untreated controls (100.0±8.5%). The fluorescence of the photoirradiated cells, which had been pre-treated with MAL, was 193.7±7.3% (p<0.001 c.f. untreated controls).

A431 cells [3] = assay: MAL-induced PpIX accumulation, fluorescence plate reader; assay type: cell-based, human; settings: for effect on PpIX accumulation compared to 1 mM MAL: 10, 100 and 1000 nM 5 hours + MAL 1 mM 3 hours, FIG. 21, 22
Description: After treatment, the cells were washed with PBS and a final 100 μl PBS was pipetted into each well for fluorescence readings. The fluorescence of PpIX was measured using a BMG Pherastar plate reader with a 410 nm excitation filter and a 630 nm emission filter.
A431 cells were treated concurrently with slow-releasing hydrogen sulfide donors (1 μM) for 5 hours and MAL (1 mM) for 3 hours, after which PpIX accumulation was measured by fluorescence plate reader (excitation 410 nm, […]). Co-treatment with CP94 (50 μM) was used as a positive control and for comparison.

A431 cells [4] = assay: cells; assay type: cell-based; settings: for increase in cell killing compared to the use of MAL alone: 10 nM; for potency compared to CP94 (50 μM) exerting a similar degree of potentiation: 10 nM vs CP94 50 μM; for modes of cell death: 1 mM MAL + SRHD 10, 100 or 1000 nM + irradiation, FIG. 19
Description: A431 cells (human epithelial squamous cell carcinoma cells) were seeded at a density of 1×10^6 cells/ml in T12.5 cm^2 flasks and incubated under 2% O2 for 48 h prior to treatment. After 24 h, the culture medium was replaced and the cells were placed back into the incubators under 2% O2. Following this incubation period, the culture medium was then removed and the flasks were washed with PBS. The cells were then treated with one of the SRHDs and incubated at 2% O2 for 2 h, after which MAL was added to a final concentration of 1 mM and the cells were incubated at 2% O2 for 3 h. This meant in total, the cells were treated with the SRHDs for 5 h.
Following this final incubation, cell death was analysed by annexin V-FITC and propidium iodide staining in conjunction with flow cytometry.
as §1
as §2, with “The wash stage was carried out once more before re-suspending the cell pellet in 95 μl of ice cold calcium (Ca^2+) buffer (50 mM HEPES, 700 mM NaCl, 12.5 mM CaCl2, pH 7.4) and adding 5 μl 12.5 μg/ml of annexin V-FITC (final concentration, 1.25 μg/ml), under reduced light conditions to prevent bleaching of the FITC.” left out, “After 15 min, 860 μl of Ca^2+ buffer (10 mM Hepes adjusted to pH 7.4, 140 mM NaCl and 2.5 mM CaCl2) was added, followed by 40 μl of 1 mg/ml PI in water (final concentration, 0.04 mg/ml) to give a final volume of 1 ml.” left out
as §3

A431 cells [5] = settings: for tolerance over 72 hours: 0-1000 nM
Description: A431 cells were seeded at a density of 1×10^5 cells/ml in 96 well plates and incubated under 2% O2 for 48 h prior to treatment. After 24 h, the culture medium was replaced and the cells were placed back into the incubators under 2% O2. Following this incubation period, the culture medium was then removed and the plates were washed with PBS. The cells were then treated with 1 mM MAL in the absence or presence of one of the compounds of interest and then incubated again at 2% O2 for 3 h. For experiments carried out with SRHDs, this treatment step was carried out for 5 h at 2% O2. After treatment, the cells were washed with PBS, the culture medium was replaced and the cells were placed back under 2% O2 for 3 h. Following this final incubation, cell death was analysed using the resazurin viability assay.
Resazurin (7-hydroxy-3H-phenoxazin-3-one 0-oxide) is a weakly fluorescent blue dye used primarily in oxidation-reduction cell viability assays. Irreversible NADH-dependent reduction by the mitochondria in mammalian cells leads to the production of resorufin, a highly fluorescent product with excitation at 571 nm, emission at 585 nm.
A431 cells were seeded into 96 well plates at a density of 1.5*10^6 cells per ml (200 μl per well, 3*10^5 cells) and incubated for 24 h to adhere. Following incubation, the cells were washed and treated with the compound of interest for the relevant time, and then washed with PBS. […] After a 2 h incubation, the fluorescence of each well was measured (excitation: 571 nm, emission: 585 nm) using a fluorescence plate reader. Data from these experiments was plotted as a percentage of cell viability compared to untreated control cells.

A431 cells [6] = assay: MAL-induced PpIX accumulation, fluorescence plate reader; assay type: cell-based, human; settings: 3 hours
[7] = MAL 1 mM + SRHD 10 nM (5 hours), irradiated
[8] = MAL 1 mM + SRHD 100 nM (5 hours), irradiated
[9] = MAL 1 mM + SRHD 1000 nM (5 hours), irradiated
[10] = 1 mM MAL + SRHD 10 nM (5 h) + irradiation, FIG. 18
[11] = 1 mM MAL + SRHD 100 nM (5 h) + irradiation, FIG. 18
[12] = 1 mM MAL + SRHD 1 μM (5 h) + irradiation, 3 h post-irradiation
[13] = 1 mM MAL + SRHD 1000 nM (5 h) + irradiation, FIG. 18
[14] = dark toxicity, without irradiation, SRHD 1 μM, 5 h, FIG. 1, 3

Compound	tolerance over 72 hours (A431 cells [5]; 72 hours)	cell viability, percentage of untreated control (A431 cells [5]; 500 μM, 5 hours, FIG. 15, 16)	MitoSOX fluorescence, percentage of untreated controls (A431 cells [2]; [7])	MitoSOX fluorescence, percentage of untreated controls (A431 cells [2]; [8])	MitoSOX fluorescence, percentage of untreated controls (A431 cells [2]; [9])	effect on PpIX accumulation compared to 1 mM MAL (A431 cells [3])	increase in cell killing compared to the use of MAL alone (A431 cells [4])	potency compared to CP94 (50 μM) exerting a similar degree of potentiation (A431 cells [4])	cell death (A431 cells [4]; [10])	cell death (A431 cells [4]; [11])	cell death (A431 cells [4]; [12])	cell death (A431 cells [4]; [13])	modes of cell death (A431 cells [4])	cell death (A431 cells [4]; [14])	other results
COC(=O)CCC(=O)CN [MAL, methyl aminolaevulinate]	–	–	–	–	–	–	–	–	–	–	–	–	–	–	cell death (A431 cells [1]; 1 mM MAL 3 h and irradiation (630 nm, 25 J/cm2) alone, no co-treatment): 32.5±3.6% and 29.1±3.8% and 34.4±3.2% and 26.8±1.9% and 24.6±4.2%; modes of cell death (A431 cells [1]; 1 mM MAL and irradiation alone, compared to untreated controls): increase in all types of cell death; MitoSOX fluorescence, percentage of untreated controls (A431 cells [2]; MAL 1 mM alone, photoirradiated): 193.7±7.3% and 220.1±8.5% and 143.3±4.8% and 207.4±16.7%; PpIX accumulation compared to untreated controls (A431 cells [3]; MAL 1 mM, 3 hours): significantly increased PpIX accumulation compared to untreated controls; cytotoxicity at 1000 µM (A431 cells [4]; Homo sapiens, A-431, light or radiation study, 3 h, read-out: cell death, 1 mM MAL 3 h and irradiation (630 nm, 25 J/cm2) in the absence of any SRHD): 27.5 ± 5.5%
O=C(CCCCCCCCC[P+](c1ccccc1)(c1ccccc1)c1ccccc1)Oc1ccc(-c2cc(=S)ss2)cc1 [AP39-C10]	well tolerated at each concentration tested	59.3±13.3%	207.3±10.7%	227.1±3.5%	214.3±6.4%	no effect on PpIX accumulation across any of the tested concentrations	~2 fold	5000 fold	50.7±3.1%	53.1±2.3%	45.3±1.9%	50.2±4.9%	a further increase in apoptosis and late apoptosis, with no apparent effect on necrotic cell death	12.1±4.9%	cell viability, percentage of untreated control (A431 cells [5]; 1000 nM, 72 hours, FIG. 17): 94.1±2.6%
NC(=S)c1ccc(OC(=O)CCCCCCCCC[P+](c2ccccc2)(c2ccccc2)c2ccccc2)cc1 [AP123-C10]	well tolerated at each concentration tested	62.6±9.1%	237.4±8.2%	245.3±10.6%	248.1±15.1%	no effect on PpIX accumulation across any of the tested concentrations	~2 fold	5000 fold	57.2±1.3%	56.5±2.7%	50.9±6.5%	66.7±5.6%	a further increase in apoptosis and late apoptosis, with no apparent effect on necrotic cell death	14.5±0.5%	–
CCc1c(O)c(O)cc[n+]1CC.[Cl-] [CP94]	–	–	–	–	–	–	–	–	–	–	–	–	–	–	increase in PpIX accumulation compared to MAL alone (A431 cells [6]; 50 μM + MAL 1 mM, FIG. 35): 223.2±26.1%; peak response, increase in PpIX accumulation compared to MAL alone (A431 cells [6]; peak at TEMPO 5 mM, MitoTEMPO 100 μM, CP94 100 μM, MAL 1 mM): 228.1±42.3%; MitoSOX fluorescence, percentage of untreated cells (A431 cells [2]; MAL 1 mM + co-treatment 50 μM, 3 hours, irradiated): 198.4±7.7%; effect on PpIX accumulation compared to 1 mM MAL alone (A431 cells [3]; CP94 50 μM + MAL 1 mM, positive control): significantly increased PpIX accumulation
